Results reported in patent US20200405696A1, “INHIBITORS OF INDOLEAMINE 2,3-DIOXYGENASE AND/OR TRYPTOPHAN 2,3-DIOXYGENASE” (IDORSIA PHARMACEUTICALS LTD, priority 2018, published 2020).

Legend:
[1] = biological target: T1, Recombinant full-length human IDO1 (Homo sapiens, UniProt P14902); assay: IDO1 enzymatic assay (NFK quantified by LCMS); type: biochemical; details: 2 nM enzyme, 5 μM L-tryptophan, pH6.5, 30 minutes pre-incubation at RT; mean values when measured multiple times; read-out: hIDO activity (IC50 in nM)
T1 construct: Recombinant full-length human IDO1 with a N-terminal hexahistidine tag; hexahistidine (His6) (N); made in house; host or cells: E. coli
T1 sequence (P14902 whole entry): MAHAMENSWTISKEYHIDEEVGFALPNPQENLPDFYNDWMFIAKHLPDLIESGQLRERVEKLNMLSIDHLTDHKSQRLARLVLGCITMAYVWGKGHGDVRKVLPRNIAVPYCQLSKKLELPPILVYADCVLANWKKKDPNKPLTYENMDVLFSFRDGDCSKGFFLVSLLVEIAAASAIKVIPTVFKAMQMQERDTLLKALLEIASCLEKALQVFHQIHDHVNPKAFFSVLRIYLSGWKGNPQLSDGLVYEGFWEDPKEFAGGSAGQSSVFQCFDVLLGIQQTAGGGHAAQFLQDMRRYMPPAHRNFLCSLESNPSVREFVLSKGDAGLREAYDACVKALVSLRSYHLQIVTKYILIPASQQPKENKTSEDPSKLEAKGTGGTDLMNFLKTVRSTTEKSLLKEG
Summary of the method: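 His-tagged human IDO1 (2 nM) in pH 6.5 phosphate buffer with ascorbate, methylene blue and catalase was preincubated with compound (10 μM–0.5 nM, 0.6% DMSO) for 30 min at RT. The reaction then ran with 5 μM L-Trp for 30 min. NFK was measured by LCMS against a d5-Trp standard, and IC50 was obtained by four-parameter fit.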

[2] = biological target: T2, Recombinant human TDO comprising amino acids 19-407 (Homo sapiens, UniProt P48775); assay: TDO2 enzymatic assay (NFK quantified by LCMS); type: biochemical; details: 15 nM enzyme, 200 μM L-tryptophan, pH7, 30 minutes pre-incubation at RT; mean values when measured multiple times; read-out: hTDO activity (IC50 in nM)
T2 construct: Recombinant human TDO comprising amino acids 19-407 with a N-terminal hexahistidine tag; hexahistidine (His6) (N); made in house; host or cells: E. coli
T2 sequence (P48775 19-406 limits assumed): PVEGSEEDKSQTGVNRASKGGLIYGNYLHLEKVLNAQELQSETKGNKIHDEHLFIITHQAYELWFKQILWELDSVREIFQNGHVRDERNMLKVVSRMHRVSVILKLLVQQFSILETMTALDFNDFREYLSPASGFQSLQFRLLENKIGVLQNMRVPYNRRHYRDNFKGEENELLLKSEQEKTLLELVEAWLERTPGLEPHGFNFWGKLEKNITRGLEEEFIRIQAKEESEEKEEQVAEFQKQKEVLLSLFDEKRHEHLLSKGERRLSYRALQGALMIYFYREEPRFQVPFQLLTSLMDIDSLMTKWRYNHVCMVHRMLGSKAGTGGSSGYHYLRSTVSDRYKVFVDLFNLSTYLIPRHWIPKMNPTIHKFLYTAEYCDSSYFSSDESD
Summary of the method: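 NFK formed over 30 min at RT from 200 μM L-tryptophan was measured by LCMS, normalized to d5-tryptophan, after compound (0.5 nM–10 μM, duplicates, 0.6% DMSO) was preincubated 30 min with 15 nM recombinant His-tagged TDO 19-407 in phosphate buffer pH 7. IC50 from four-parameter logistic fit; repeats averaged.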

| Structure (SMILES) | IC50 [1] | IC50 [2] |
| --- | --- | --- |
| OC(c1cnn(-c2ccccc2)c1)c1c(C2CC2)sc2cncn12 (racemic) [Example 100, rac-(2-Cyclopropyl-imidazo[5,1-b]thiazol-3-yl)-(1-phenyl-1H-pyrazol-4-yl)-methanol] | 41.8 nM | 3350 nM |
| COc1ccc(-n2nnc(C(O)c3c([C@@H]4C[C@H]4F)sc4cncn34)c2F)cc1 (relative stereo) [Example 335, [2-(trans-2-Fluoro-cyclopropyl)-imidazo[5,1-b]thiazol-3-yl]-[5-fluoro-1-(4-methoxy-phenyl)-1H-[1,2,3]triazol-4-yl]-methanol] | 23 nM | > 10200 nM |
| CCc1sc2cncn2c1C(O)c1cn(-c2cc(F)c(O)cc2F)nn1 (racemic) [Example 332, rac-4-{4-[(2-Ethyl-imidazo[5,1-b]thiazol-3-yl)-hydroxy-methyl]-[1,2,3]triazol-1-yl}-2,5-difluoro-phenol] | 5.37 nM | 2820 nM |
| OC(c1ccc(-c2cncc3ccccc23)s1)c1c(C2CC2)sc2cncn12 (racemic) [Example 177, rac-(2-Cyclopropyl-imidazo[5,1-b]thiazol-3-yl)-(5-isoquinolin-4-yl-thiophen-2-yl)-methanol] | 138 nM | 8620 nM |
| O=C(c1ccc(-n2cc(C(O)c3c(C4CC4)sc4cncn34)nn2)cc1)N1CCOCC1 (racemic) [Example 103, rac-(4-{4-[(2-Cyclopropyl-imidazo[5,1-b]thiazol-3-yl)-hydroxy-methyl]-[1,2,3]triazol-1-yl}-phenyl)-morpholin-4-yl-methanone] | 78.1 nM | > 10200 nM |
| N#Cc1cccc(-c2ccc(C(O)c3c(C4CC4)sc4cncn34)s2)c1 (racemic) [Example 159, rac-3-{5-[(2-Cyclopropyl-imidazo[5,1-b]thiazol-3-yl)-hydroxy-methyl]-thiophen-2-yl}-benzonitrile] | 238 nM | 8310 nM |
| OC(c1ccc(-c2ccccc2C(F)(F)F)s1)c1c(C2CC2)sc2cncn12 (racemic) [Example 170, rac-(2-Cyclopropyl-imidazo[5,1-b]thiazol-3-yl)-[5-(2-trifluoromethyl-phenyl)-thiophen-2-yl]-methanol] | 550 nM | 3820 nM |
| COC(=O)Nc1ccc(-n2cc(C(O)c3c(C)sc4cncn34)nn2)cc1 (racemic) [Example 58, rac-(4-{4-[Hydroxy-(2-methyl-imidazo[5,1-b]thiazol-3-yl)-methyl]-[1,2,3]triazol-1-yl}-phenyl)-carbamic Acid Methyl Ester] | 69.1 nM | 8050 nM |
| CCc1sc2cncn2c1C(O)c1cn(-c2ccc3c(c2)C(C)NS3(=O)=O)nn1 (centres unmarked) [Example 227, (2-Ethyl-imidazo[5,1-b]thiazol-3-yl)-[1-(3-methyl-1,1-dioxo-2,3-dihydro-1H-1I6-benzo[d]isothiazol-5-yl)-1H-[1,2,3]triazol-4-yl]-methanol] | 77.8 nM | > 10200 nM |
| CC(C)(O)CCOc1ccc(-n2cc([C@H](O)c3c(C4CC4)sc4cncn34)nn2)cc1Cl [Example 277, 4-(2-Chloro-4-{4-[(R)-(2-cyclopropyl-imidazo[5,1-b]thiazol-3-yl)-hydroxy-methyl]-[1,2,3]triazol-1-yl}-phenoxy)-2-methyl-butan-2-ol] | 7.12 nM | > 10200 nM |
| CCc1sc2cncn2c1C(O)c1cn(-c2ccc(C(=O)NC)cc2)nn1 (racemic) [Example 111, rac-4-{4-[(2-Ethyl-imidazo[5,1-b]thiazol-3-yl)-hydroxy-methyl]-[1,2,3]triazol-1-yl}-N-methyl-benzamide] | 28.8 nM | > 10200 nM |

Results, then the compound that gave them:

| IC50 [1] | IC50 [2] | Structure (SMILES) |
| --- | --- | --- |
| 5.36 nM | > 10200 nM | O=c1[nH]c2ccc(-n3cc(C(O)c4c(C5CC5)sc5cncn45)nn3)cc2o1 (racemic) [Example 179, rac-6-{4-[(2-Cyclopropyl-imidazo[5,1-b]thiazol-3-yl)-hydroxy-methyl]-[1,2,3]triazol-1-yl}-3H-benzooxazol-2-one] |
| 34.5 nM | > 10200 nM | Cc1ccc(-n2cc(C(O)c3c(C4CC4)sc4cncn34)nn2)cc1 (racemic) [Example 4, rac-(2-Cyclopropyl-imidazo[5,1-b]thiazol-3-yl)-(1-p-tolyl-1H-[1,2,3]triazol-4-yl)-methanol] |
| 4.55 nM | 4570 nM | O[C@@H](c1cn(-c2ccc3[nH]ccc3c2)nn1)c1c(C2CC2)sc2cncn12 [Example 16a, (R)-(2-Cyclopropyl-imidazo[5,1-b]thiazol-3-yl)-[1-(1H-indol-5-yl)-1H-[1,2,3]triazol-4-yl]-methanol] |
| 40.7 nM | > 10200 nM | COC(=O)COc1ccc(-n2cc(C(O)c3c(C4CC4)sc4cncn34)nn2)cn1 (racemic) [Example 75, rac-(5-{4-[(2-Cyclopropyl-imidazo[5,1-b]thiazol-3-yl)-hydroxy-methyl]-[1,2,3]triazol-1-yl}-pyridin-2-yloxy)-acetic acid methyl ester] |
| 3.71 nM | > 10200 nM | CC(C)C(=O)Nc1ccc(-n2cc([C@H](O)c3c(C4CC4)sc4cncn34)nn2)cc1 [Example 192a, N-(4-{4-[(R)-(2-Cyclopropyl-imidazo[5,1-b]thiazol-3-yl)-hydroxy-methyl]-[1,2,3]triazol-1-yl}-phenyl)-isobutyramide] |
| 22.1 nM | > 10200 nM | O=C(NC1CC1)c1ccc(-n2cc(C(O)c3c(C4CC4)sc4cncn34)nn2)cc1 (racemic) [Example 105, rac-N-Cyclopropyl-4-{4-[(2-cyclopropyl-imidazo[5,1-b]thiazol-3-yl)-hydroxy-methyl]-[1,2,3]triazol-1-yl}-benzamide] |
| 16.6 nM | > 10200 nM | CCNC(=O)c1ccc(-n2cc(C(O)c3c(C4CC4)sc4cncn34)nn2)cc1 (racemic) [Example 107, rac-4-{4-[(2-Cyclopropyl-imidazo[5,1-b]thiazol-3-yl)-hydroxy-methyl]-[1,2,3]triazol-1-yl}-N-ethyl-benzamide] |
| 55.4 nM | > 10200 nM | OC(c1cn(-c2nccc(Br)c2Cl)nn1)c1c(C2CC2)sc2cncn12 (racemic) [Example 200, rac-[1-(4-Bromo-3-chloro-pyridin-2-yl)-1H-[1,2,3]triazol-4-yl]-(2-cyclopropyl-imidazo[5,1-b]thiazol-3-yl)-methanol] |
| 9.6 nM | > 10200 nM | Oc1cc(-n2cc(C(O)c3c(C4CC4)sc4cncn34)nn2)ccc1Cl (racemic) [Example 217, rac-2-Chloro-5-{4-[(2-cyclopropyl-imidazo[5,1-b]thiazol-3-yl)-hydroxy-methyl]-[1,2,3]triazol-1-yl}-phenol] |
| 20.3 nM | > 10200 nM | N#Cc1ccc(-n2cc(C(O)c3c(C4CC4)sc4cncn34)nn2)cc1O (racemic) [Example 233, rac-4-{4-[(2-Cyclopropyl-imidazo[5,1-b]thiazol-3-yl)-hydroxy-methyl]-[1,2,3]triazol-1-yl}-2-hydroxy-benzonitrile] |
| 12.9 nM | > 10200 nM | COCCOc1ccc(-n2cc(C(O)c3c(C4CC4)sc4cncn34)nn2)cc1 (racemic) [Example 91, rac-(2-Cyclopropyl-imidazo[5,1-b]thiazol-3-yl)-{1-[4-(2-methoxy-ethoxy)-phenyl]-1H-[1,2,3]triazol-4-yl}-methanol] |
| 52.2 nM | > 10200 nM | Oc1ccc(Cn2cc(C(O)c3c(C4CC4)sc4cncn34)nn2)cc1 (racemic) [Example 304, rac-4-{4-[(2-Cyclopropyl-imidazo[5,1-b]thiazol-3-yl)-hydroxy-methyl]-[1,2,3]triazol-1-ylmethyl}-phenol] |
| 11.2 nM | > 10200 nM | CC1(COc2ccc(-n3cc(C(O)c4c(C5CC5)sc5cncn45)nn3)cc2)COC1 (racemic) [Example 144, rac-(2-Cyclopropyl-imidazo[5,1-b]thiazol-3-yl)-{1-[4-(3-methyl-oxetan-3-ylmethoxy)-phenyl]-1H-[1,2,3]triazol-4-yl}-methanol] |
| 27.6 nM | > 10200 nM | Oc1cccc(-n2cc(C(O)c3c(C4CC4)sc4cncn34)nn2)c1 (racemic) [Example 215, rac-3-{4-[(2-Cyclopropyl-imidazo[5,1-b]thiazol-3-yl)-hydroxy-methyl]-[1,2,3]triazol-1-yl}-phenol] |
| 33.6 nM | > 10200 nM | CC(C)(C)OC(=O)Nc1ccc(-n2cc(C(O)c3c(C4CC4)sc4cncn34)nn2)cc1 (racemic) [Example 180, rac-(4-{4-[(2-Cyclopropyl-imidazo[5,1-b]thiazol-3-yl)-hydroxy-methyl]-[1,2,3]triazol-1-yl}-phenyl)-carbamic acid tert-butyl ester] |
| 11.1 nM | 8520 nM | COC(=O)Nc1ccc(-n2cc(C(O)c3c(C4CC4)sc4cncn34)nn2)cc1 (racemic) [Example 36, rac-(4-{4-[(2-Cyclopropyl-imidazo[5,1-b]thiazol-3-yl)-hydroxy-methyl]-[1,2,3]triazol-1-yl}-phenyl)-carbamic Acid Methyl Ester] |
| 7.11 nM | > 10200 nM | NS(=O)(=O)CCCOc1ccc(-n2cc(C(O)c3c(C4CC4)sc4cncn34)nn2)cc1 (racemic) [Example 206, rac-3-(4-{4-[(2-Cyclopropyl-imidazo[5,1-b]thiazol-3-yl)-hydroxy-methyl]-[1,2,3]triazol-1-yl}-phenoxy)-propane-1-sulfonic acid amide] |
